The nature of test [1]: Inhibition of bacterial AmpC. The arrangement: species or system Bacteria.
The next test deals with Escherichia coli. The test is described as follows: microbe, parasite or virus in culture. Conditions: NCTC 10118, 16 h. It is filed as functional.
Test [2] has as its target Beta-lactamase (Escherichia coli) (UniProt Q7BB82). Conditions: G69.
For test [3], the target named is Metallo-beta-lactamase type 2 (Klebsiella pneumoniae) (UniProt C7C422). Conditions: NCTC 13443.
The next test concerns Klebsiella pneumoniae. Conditions: isolate 342.

For 18 compounds, Ki and MIC results are on record in ChEMBL document CHEMBL4118200, “Boronic acid inhibitors of the class A β-lactamase KPC-2” (Bioorg Med Chem, 2018).

Converted amounts (≈) assume the structure as drawn.

By Ki is commonly meant a dissociation constant, usually derived from enzyme kinetics or from competition with a known ligand. Read a low Ki as higher affinity.

Beta-lactamase (Escherichia coli), sequence (Q7BB82 as listed by the source): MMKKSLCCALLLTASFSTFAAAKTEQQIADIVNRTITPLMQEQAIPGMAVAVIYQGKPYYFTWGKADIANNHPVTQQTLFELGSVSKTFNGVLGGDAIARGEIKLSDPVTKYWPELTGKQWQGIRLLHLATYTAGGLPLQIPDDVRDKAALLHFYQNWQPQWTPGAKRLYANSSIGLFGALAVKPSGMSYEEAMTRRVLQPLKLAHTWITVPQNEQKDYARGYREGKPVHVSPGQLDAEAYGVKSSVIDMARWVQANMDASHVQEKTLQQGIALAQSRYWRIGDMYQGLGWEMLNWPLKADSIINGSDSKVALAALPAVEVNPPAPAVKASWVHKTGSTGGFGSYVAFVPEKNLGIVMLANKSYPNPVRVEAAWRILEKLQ
Metallo-beta-lactamase type 2 (Klebsiella pneumoniae), sequence (C7C422 whole entry): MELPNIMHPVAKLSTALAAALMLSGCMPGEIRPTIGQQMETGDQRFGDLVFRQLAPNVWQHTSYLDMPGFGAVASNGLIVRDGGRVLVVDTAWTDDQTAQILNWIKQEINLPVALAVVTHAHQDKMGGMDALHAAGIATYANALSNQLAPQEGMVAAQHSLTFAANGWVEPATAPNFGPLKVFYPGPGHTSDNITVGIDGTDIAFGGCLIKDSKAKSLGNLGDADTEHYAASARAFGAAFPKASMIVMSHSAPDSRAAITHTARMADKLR
Description for Bacteria: Inhibition of bacterial beta-lactamase KPC2 expressed in Escherichia coli BL21(DE3) assessed as cefotaxime MIC at 50 ug/ml incubated for 16 hrs by broth microdilution method (Rvb = 16 ug/ml)

As for `OB(O)c1cccc(/N=N/c2cc3ccccc3cc2O)c1`, the Ki in test [1] turned out to be 300 nM.
Turning to `OB(O)c1cccc(Cn2cc(-c3ccccc3)nn2)c1`, the MIC was at most 0.03 µg/mL in the test on Escherichia coli; under 0.03 µg/mL with Bacteria; over 32 µg/mL in test [2]; over 32 µg/mL in test [3]; over 32 µg/mL against Klebsiella pneumoniae.
As to `Nc1cccc(B(O)O)c1`, the Ki in test [1] worked out at 7100 nM.
Turning to `[N-]=[N+]=NCc1ccc(B(O)O)cc1`, the MIC was at most 0.03 µg/mL in the test on Escherichia coli; under 0.03 µg/mL with Bacteria; over 32 µg/mL in test [2]; over 32 µg/mL in test [3]; over 32 µg/mL with Klebsiella pneumoniae.
Consider `OB(O)c1ccc(Cn2cc(-c3ccsc3)nn2)cc1`, for which the MIC was at most 0.03 µg/mL against Escherichia coli; under 0.03 µg/mL against Bacteria; over 32 µg/mL in test [2]; over 32 µg/mL in test [3]; over 32 µg/mL in the test on Klebsiella pneumoniae.
On to `COc1ccc(-c2cn(Cc3cccc(B(O)O)c3)nn2)cc1`, for which the MIC in the test with Escherichia coli was at most 0.03 µg/mL; in the test on Bacteria, 0.12 µg/mL (≈ 0.388 µM); in test [2], 32 µg/mL (≈ 104 µM); in test [3], over 32 µg/mL; in the test with Klebsiella pneumoniae, over 32 µg/mL.
On to `OB(O)c1cccc(Cn2cc(-c3ccccn3)nn2)c1`, for which the MIC in the test with Escherichia coli was at most 0.03 µg/mL; with Bacteria, under 0.03 µg/mL; in test [2], over 32 µg/mL; in test [3], over 32 µg/mL; against Klebsiella pneumoniae, over 32 µg/mL.
In the case of `OB(O)c1cccc(Cn2cc(-c3cccnc3)nn2)c1`, the MIC is at most 0.03 µg/mL in the test on Escherichia coli; under 0.03 µg/mL against Bacteria; over 32 µg/mL in test [2]; over 32 µg/mL in test [3]; over 32 µg/mL against Klebsiella pneumoniae.
For the compound `COc1ccc(-c2cn(Cc3ccc(B(O)O)cc3)nn2)cc1`, the MIC against Escherichia coli was at most 0.03 µg/mL; in the test with Bacteria, 0.06 µg/mL (≈ 0.194 µM); in test [2] it was over 32 µg/mL; in test [3], over 32 µg/mL; in the test on Klebsiella pneumoniae it was over 32 µg/mL.
On to `[N-]=[N+]=NCc1cccc(B(O)O)c1`, for which the MIC with Escherichia coli is at most 0.03 µg/mL; in the test on Bacteria, under 0.03 µg/mL; in test [2], 8 µg/mL (≈ 45.2 µM); in test [3], over 32 µg/mL; in the test with Klebsiella pneumoniae it was over 32 µg/mL.
As for `OB(O)c1ccc(Cn2cc(-c3ccccn3)nn2)cc1`, the MIC was at most 0.03 µg/mL against Escherichia coli; under 0.03 µg/mL in the test on Bacteria; over 32 µg/mL in test [2]; over 32 µg/mL in test [3]; over 32 µg/mL against Klebsiella pneumoniae.
As to `OB(O)c1ccc(Cn2cc(-c3cccnc3)nn2)cc1`, the MIC in the test on Escherichia coli was at most 0.03 µg/mL; with Bacteria it was under 0.03 µg/mL; in test [2], over 32 µg/mL; in test [3], over 32 µg/mL; against Klebsiella pneumoniae it was over 32 µg/mL.
As to `O=C(O)C/C=C/c1c(B(O)O)sc2ccccc12`, the Ki in test [1] was determined as 90 nM.
Regarding `OB(O)c1ccc(Cn2cc(-c3ccccc3)nn2)cc1`, the MIC against Escherichia coli is at most 0.03 µg/mL; in the test on Bacteria, under 0.03 µg/mL; in test [2] it was over 32 µg/mL; in test [3] it was over 32 µg/mL; with Klebsiella pneumoniae, over 32 µg/mL.
For `OB(O)c1ccc(Cn2cc(-c3cccs3)nn2)cc1`, the MIC against Escherichia coli was at most 0.03 µg/mL; against Bacteria it was 0.12 µg/mL (≈ 0.421 µM); in test [2], over 32 µg/mL; in test [3], over 32 µg/mL; against Klebsiella pneumoniae, over 32 µg/mL.
Turning to `OB(O)c1cccc(Cn2cc(-c3ccsc3)nn2)c1`, the MIC was at most 0.03 µg/mL in the test with Escherichia coli; under 0.03 µg/mL with Bacteria; over 32 µg/mL in test [2]; over 32 µg/mL in test [3]; over 32 µg/mL in the test on Klebsiella pneumoniae.
For `OB(O)c1cccc(Cn2cc(-c3cccs3)nn2)c1`, the MIC was at most 0.03 µg/mL in the test on Escherichia coli; under 0.03 µg/mL in the test with Bacteria; over 32 µg/mL in test [2]; over 32 µg/mL in test [3]; over 32 µg/mL against Klebsiella pneumoniae.
In turn, `O=C(Cc1cccs1)N[C@@H](B(O)O)c1ccccc1` returned a Ki in test [1] of 35 nM.
